# Counter-ions that a name gives are not always drawn.
# Tested on: eNOS promoter
# Experiment: Activation of eNOS transcription (eNOS promoter-luciferase reporter gene assay)
# Assay type: cell-based
# Conditions: human endothelial cell line stably transfected with eNOS promoter-firefly luciferase construct; 18 h incubation; EC50 determined graphically; read-out: EC50 of transcription induction ratio (TIR)
# Experimental: Activation of eNOS transcription was measured as described in detail by Li et al., “Activation of protein kinase C alpha and/or epsilon enhances transcription of the human endothelial nitric oxide synthase gene”, Mol. Pharmacol. 53 (1998) 630. Briefly, a 3.5 kB long fragment 5′ of the starting codon of the eNOS gene was cloned, sequenced and cloned in firefly luciferase expression plasmids to monitor activation of the eNOS promoter by reporter gene activity. A human endothelial cell line stable transfected and expressing this promoter-reporter construct was used for compound testing. Cells were incubated for 18 h with the compounds.
# All compounds were dissolved in sterile dimethylsulfoxide (DMSO). A final concentration of 0.5% DMSO in complete medium was allowed. Induction of reporter gene expression in these cells was measured using a standard luciferase assay system (Promega, Cat. No. E150) according to the manufacturer's instructions. Luciferase induction in cells incubated with compounds were compared to those incubated with solvent alone. The ratio of both activities (transcription induction ratio, TIR) was plotted as a function of compound concentration. Typically, TIR values started at low concentrations at a ratio of 1, indicating no compound effect, and extended up to a maximum TIR value TIR(max) which indicates the increase of the eNOS transcription. EC50 values of transcription induction ratios as a function of compound concentration were determined graphically.
row,Compound,EC50
1,"CC(C)[C@H]1C(=O)N(CCCCc2ccccc2)CC2N(CCCn3ccnc3)c3ccc([N+](=O)[O-])cc3C(=O)N21 (stereo partly drawn) [Example 1, (4S)-9-(3-(Imidazol-1-yl)propyl)-4-isopropyl-6-nitro-2-(4-phenylbutyl)-1,2,9,9a-tetrahydro-2,4a,9-triaza-anthracene-3,10(4H)-dione trifluoroacetic acid salt]",2.2 µM
2,"CC(C)[C@H]1C(=O)N(Cc2ccc(C(C)(C)C)cc2)CC2N(CCCn3ccnc3)c3ccc([N+](=O)[O-])cc3C(=O)N21 (stereo partly drawn) [Example 2, (4S)-2-(4-tert-Butylbenzyl)-9-(3-(imidazol-1-yl)propyl)-4-isopropyl-6-nitro-1,2,9,9a-tetrahydro-2,4a,9-triaza-anthracene-3,10(4H)-dione trifluoroacetic acid salt]",1.2 µM
3,"CC(C)[C@H]1C(=O)N(Cc2cccc3ccccc23)CC2N(CCCn3ccnc3)c3ccc([N+](=O)[O-])cc3C(=O)N21 (stereo partly drawn) [Example 3, (4S)-9-(3-(Imidazol-1-yl)propyl)-4-isopropyl-2-(naphth-1-ylmethyl)-6-nitro-1,2,9,9a-tetrahydro-2,4a,9-triaza-anthracene-3,10(4H)-dione trifluoroacetic acid salt]",20 µM
4,"O=C1[C@H](Cc2cccc(F)c2)N2C(=O)c3cc([N+](=O)[O-])ccc3N(CCCn3ccnc3)C2CN1CCCCc1ccccc1 (stereo partly drawn) [Example 4, (4S)-4-(3-Fluorobenzyl)-9-(3-(imidazol-1-yl)propyl)-6-nitro-2-(4-phenylbutyl)-1,2,9,9a-tetrahydro-2,4a,9-triaza-anthracene-3,10(4H)-dione trifluoroacetic acid salt]",8 µM
5,"O=C1[C@H](C2CCCCC2)N2C(=O)c3cc([N+](=O)[O-])ccc3N(CCCn3ccnc3)C2CN1CCCCc1ccccc1 (stereo partly drawn) [Example 5, (4S)-4-Cyclohexyl-9-(3-(imidazol-1-yl)propyl)-6-nitro-2-(4-phenylbutyl)-1,2,9,9a-tetrahydro-2,4a,9-triaza-anthracene-3,10(4H)-dione trifluoroacetic acid salt]",2.8 µM
6,"COc1ccc(C[C@H]2C(=O)N(CCCCc3ccccc3)CC3N(CCCn4ccnc4)c4ccc([N+](=O)[O-])cc4C(=O)N32)cc1OC (stereo partly drawn) [Example 6, (4S)-4-(3,4-Dimethoxybenzyl)-9-(3-(imidazol-1-yl)propyl)-6-nitro-2-(4-phenylbutyl)-1,2,9,9a-tetrahydro-2,4a,9-triaza-anthracene-3,10(4H)-dione trifluoroacetic acid salt]",24 µM
7,"CC(C)[C@H]1C(=O)N(CCCCc2ccccc2)CC2N(CCc3ccncc3)c3ccc([N+](=O)[O-])cc3C(=O)N21 (stereo partly drawn) [Example 7, (4S)-4-Isopropyl-6-nitro-2-(4-phenylbutyl)-9-(2-(pyridin-4-yl)ethyl)-1,2,9,9a-tetrahydro-2,4a,9-triaza-anthracene-3,10(4H)-dione trifluoroacetic acid salt]",20 µM
8,"O=C1[C@H](Cc2c[nH]cn2)N2C(=O)c3cc([N+](=O)[O-])ccc3N(CCCCc3ccccc3)C2CN1CCCCc1ccccc1 (stereo partly drawn) [Example 8, (4S)-4-(1H—Imidazol-4-ylmethyl)-6-nitro-2,9-bis(4-phenylbutyl)-1,2,9,9a-tetrahydro-2,4a,9-triaza-anthracene-3,10(4H)-dione trifluoroacetic acid salt]",6 µM
9,"O=C1[C@H](Cc2c[nH]cn2)N2C(=O)c3cc([N+](=O)[O-])ccc3N(Cc3ccc(OC(F)(F)F)cc3)C2CN1CCCCc1ccccc1 (stereo partly drawn) [Example 9, (4S)-4-(1H-Imidazol-4-ylmethyl)-6-nitro-2-(4-phenylbutyl)-9-(4-trifluoromethoxy-benzyl)-1,2,9,9a-tetrahydro-2,4a,9-triaza-anthracene-3,10(4H)-dione trifluoroacetic acid salt]",8.4 µM
10,"CC(C)[C@H]1C(=O)N(CCCCc2ccccc2)CC2N(CCCn3ccnc3)c3ccc(C(F)(F)F)cc3C(=O)N21 (stereo partly drawn) [Example 10, (4S)-9-(3-(Imidazol-1-yl)propyl)-4-isopropyl-2-(4-phenylbutyl)-6-trifluoromethyl-1,2,9,9a-tetrahydro-2,4a,9-triaza-anthracene-3,10(4H)-dione trifluoroacetic acid salt]",12 µM
11,"CC(C)[C@H]1C(=O)N(Cc2ccc(C(F)(F)F)cc2)CC2N(CCCn3ccnc3)c3ccc(C(F)(F)F)cc3C(=O)N21 (stereo partly drawn) [Example 11, (4S)-9-(3-(Imidazol-1-yl)propyl)-4-isopropyl-6-trifluoromethyl-2-(4-trifluoromethyl-benzyl)-1,2,9,9a-tetrahydro-2,4a,9-triaza-anthracene-3,10(4H)-dione trifluoroacetic acid salt]",20 µM
12,"CC(C)[C@H]1C(=O)N(Cc2ccc(C(F)(F)F)cc2)CC2N(CCc3ccncc3)c3ccc(C(F)(F)F)cc3C(=O)N21 (stereo partly drawn) [Example 12, (4S)-4-Isopropyl-9-(2-(pyridin-4-yl)ethyl)-6-trifluoromethyl-2-(4-trifluoromethylbenzyl)-1,2,9,9a-tetrahydro-2,4a,9-triaza-anthracene-3,10(4H)-dione trifluoroacetic acid salt]",20 µM
13,"O=C1[C@H](C2CCCCC2)N2C(=O)c3cc(C(F)(F)F)ccc3N(CCCn3ccnc3)C2CN1CCCCc1ccccc1 (stereo partly drawn) [Example 13, (4S)-4-Cyclohexyl-9-(3-(imidazol-1-yl)propyl)-2-(4-phenylbutyl)-6-trifluoromethyl-1,2,9,9a-tetrahydro-2,4a,9-triaza-anthracene-3,10(4H)-dione trifluoroacetic acid salt]",7 µM
14,"COc1ccc(CN2CC3N(CCCn4ccnc4)c4ccc(C(F)(F)F)cc4C(=O)N3[C@@H](C(C)C)C2=O)c(OC)c1 (stereo partly drawn) [Example 14, (4S)-2-(2,4-Dimethoxybenzyl)-9-(3-(imidazol-1-yl)propyl)-4-isopropyl-6-trifluoromethyl-1,2,9,9a-tetrahydro-2,4a,9-triaza-anthracene-3,10(4H)-dione trifluoroacetic acid salt]",12 µM
15,"CC(C)[C@H]1C(=O)N(Cc2ccc(C(C)(C)C)cc2)CC2N(CCCn3ccnc3)c3ccc(C(F)(F)F)cc3C(=O)N21 (stereo partly drawn) [Example 15, (4S)-2-(4-tert-Butylbenzyl)-9-(3-(imidazol-1-yl)propyl)-4-isopropyl-6-trifluoromethyl-1,2,9,9a-tetrahydro-2,4a,9-triaza-anthracene-3,10(4H)-dione trifluoroacetic acid salt]",4 µM
16,"O=C1[C@H](Cc2cccc(F)c2)N2C(=O)c3cc(C(F)(F)F)ccc3N(CCCn3ccnc3)C2CN1CCCCc1ccccc1 (stereo partly drawn) [Example 16, (4S)-4-(3-Fluorobenzyl)-9-(3-(imidazol-1-yl)propyl)-2-(4-phenylbutyl)-6-trifluoromethyl-1,2,9,9a-tetrahydro-2,4a,9-triaza-anthracene-3,10(4H)-dione trifluoroacetic acid salt]",8 µM
17,"CC(C)C1C(=O)N(Cc2ccc(C(C)(C)C)cc2)CC2N(CCCn3ccnc3)c3cccnc3C(=O)N12 (stereo not drawn) [Example 36, 6-(4-tert-Butylbenzyl)-10-(3-(imidazol-1-yl)propyl)-8-isopropyl-5,6,10,10a-tetrahydro-1,6,8a,10-tetraaza-anthracene-7,9(8H)-dione trifluoroacetic acid salt]",100 µM
18,"Cc1ccc2c(n1)C(=O)N1C(C(C)C)C(=O)N(Cc3ccc(C(C)(C)C)cc3)CC1N2CCCn1ccnc1 (stereo not drawn) [Example 37, 6-(4-tert-Butylbenzyl)-10-(3-(imidazol-1-yl)propyl)-8-isopropyl-2-methyl-5,6,10,10a-tetrahydro-1,6,8a,10-tetraaza-anthracene-7,9(8H)-dione trifluoroacetic acid salt]",100 µM
19,"CC[C@H]1C(=O)N(Cc2ccc(C(C)(C)C)cc2)CC2N(CCCn3ccnc3)c3ccc([N+](=O)[O-])cc3C(=O)N21 (stereo partly drawn) [Example 38, (4S)-2-(4-tert-Butylbenzyl)-4-ethyl-9-(3-(imidazol-1-yl)propyl)-6-nitro-1,2,9,9a-tetrahydro-2,4a,9-triaza-anthracene-3,10(4H)-dione trifluoroacetic acid salt]",0.4 µM
20,"CC(C)C1C(=O)N(Cc2ccc(C(C)(C)C)cc2)CC2N(CCCn3ccnc3)c3ccc([N+](=O)[O-])cc3C(=O)N12 (stereo not drawn) [Example 39, 2-(4-tert-Butylbenzyl)-9-(3-(imidazol-1-yl)propyl)-4-isopropyl-6-nitro-1,2,9,9a-tetrahydro-2,4a,9-triaza-anthracene-3,10(4H)-dione trifluoroacetic acid salt]",0.29 µM
21,"CCC1C(=O)N(Cc2ccc(C(C)(C)C)cc2)CC2N(CCc3ccncc3)c3ccc([N+](=O)[O-])cc3C(=O)N12 (stereo not drawn) [Example 40, 2-(4-tert-Butylbenzyl)-4-ethyl-6-nitro-9-(2-(pyridin-4-yl)ethyl)-1,2,9,9a-tetrahydro-2,4a,9-triaza-anthracene-3,10(4H)-dione trifluoroacetic acid salt]",0.22 µM
